We go through six compounds from PubChem BioAssay AID1259411 (Chemical Carcinogenesis Research Information System (CCRIS), 2018).

Active and inactive are the calls of the source. The rule behind the calls is not given here.

The data set relates to rodent carcinogenicity bioassays, tumor incidence. Briefly: CCRIS carcinogenicity studies. As to conditions: Dose: 0, Dose: 0. In short, it runs like this:
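Archive of carcinogenicity, mutagenicity, tumor promotion and tumor inhibition results drawn from journals, NCI reports and other sources, expert-reviewed; covers 1985-2011 and is no longer updated.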

With `CC1(C)[C@H](C(=O)O[C@H](C#N)c2cccc(Oc3ccccc3)c2)[C@@H]1C(Br)C(Br)(Br)Br` (stereo partly specified), the carcinogen call reads like this: (Species: Mouse, Strain/Sex: Not reported by DPR/Female (60-80/Group), Route: Gavage, 0.75, 3.0, 10.0 mg/kg/day in corn oil for 104 wk, 0.75, 3.0, 10.0 mg/kg/day in corn oil for 104 wk) “inactive; negative”; (Species: Mouse, Strain/Sex: Not reported by DPR/Male (60-80/Group), Route: Gavage, 0.75, 3.0, 10.0 mg/kg/day in corn oil for 104 wk, 0.75, 3.0, 10.0 mg/kg/day in corn oil for 104 wk) “inactive; negative”; (Species: Rat, Strain/Sex: Not reported by DPR/Female (60-80/Group), Route: Gavage, 0.75, 3.0, 12.0 mg/kg/day in corn oil for 104 wk, 0.75, 3.0, 12.0 mg/kg/day in corn oil for 104 wk) “inactive; negative”; (Species: Rat, Strain/Sex: Not reported by DPR/Male (60-80/Group), Route: Gavage, 0.75, 3.0, 12.0 mg/kg/day in corn oil for 104 wk, 0.75, 3.0, 12.0 mg/kg/day in corn oil for 104 wk) “inactive; negative”.

In the case of `O=C(O)C1C(C(=O)O)C2(Cl)C(Cl)=C(Cl)C1(Cl)C2(Cl)Cl` (stereo unspecified), the carcinogen call was “inactive; negative” (Species: MOUSE, Strain/Sex: B6C3F1/FEMALE, Route: ORAL, 620, 1250 PPM IN DIET FOR 103 WK (STUDY DURATION: 104 WK), 620, 1250 PPM IN DIET FOR 103 WK (STUDY DURATION: 104 WK)); “active; positive” (Species: MOUSE, Strain/Sex: B6C3F1/MALE, Route: ORAL, 620, 1250 PPM IN DIET FOR 103 WK (STUDY DURATION: 104 WK), 620, 1250 PPM IN DIET FOR 103 WK (STUDY DURATION: 104 WK), Tumor Site: Type of Lesion: LIVER: HEPATOCELLULAR ADENOMA, LIVER: HEPATOCELLULAR CARCINOMA, LIVER: HEPATOCELLULAR ADENOMA OR CARCINOMA, Tumor Site: Type of Lesion: LIVER: HEPATOCELLULAR ADENOMA, LIVER: HEPATOCELLULAR CARCINOMA, LIVER: HEPATOCELLULAR ADENOMA OR CARCINOMA); “active; positive” (Species: RAT, Strain/Sex: F344/FEMALE, Route: ORAL, 620, 1250 PPM IN DIET FOR 103 WK (STUDY DURATION: 104 WK), 620, 1250 PPM IN DIET FOR 103 WK (STUDY DURATION: 104 WK), Tumor Site: Type of Lesion: LIVER: NEOPLASTIC NODULE, LIVER: HEPATOCELLULAR CARCINOMA, LIVER: NEOPLASTIC NODULE OR HEPATOCELLULAR CARCINOMA, UTERUS:, Tumor Site: Type of Lesion: LIVER: NEOPLASTIC NODULE, LIVER: HEPATOCELLULAR CARCINOMA, LIVER: NEOPLASTIC NODULE OR HEPATOCELLULAR CARCINOMA, UTERUS:); “active; positive” (Species: RAT, Strain/Sex: F344/MALE, Route: ORAL, 620, 1250 PPM IN DIET FOR 103 WK (STUDY DURATION: 104 WK), 620, 1250 PPM IN DIET FOR 103 WK (STUDY DURATION: 104 WK), Tumor Site: Type of Lesion: LUNG: ALVEOLAR/BRONCHIOLAR ADENOMA, LUNG: ALVEOLAR/BRONCHIOLAR ADENOMA OR CARCINOMA, LIVER: NEOPLASTIC NODULE, LIVER: NE, Tumor Site: Type of Lesion: LUNG: ALVEOLAR/BRONCHIOLAR ADENOMA, LUNG: ALVEOLAR/BRONCHIOLAR ADENOMA OR CARCINOMA, LIVER: NEOPLASTIC NODULE, LIVER: NE).

In the case of `CCn1nc(C)c2c1C(c1ccccc1)=NCC(=O)N2`, the carcinogen call reads like this: (Species: MOUSE, Strain/Sex: CD-1/FEMALE, Route: ORAL, 15, 150, MG/KG IN DIET FOR 78 WK (STUDY DURATION: 78 WK), 15, 150, MG/KG IN DIET FOR 78 WK (STUDY DURATION: 78 WK)) “inactive; negative”; (Species: MOUSE, Strain/Sex: CD-1/MALE, Route: ORAL, 15, 150, MG/KG IN DIET FOR 78 WK (STUDY DURATION: 78 WK), 15, 150, MG/KG IN DIET FOR 78 WK (STUDY DURATION: 78 WK), Tumor Site: Type of Lesion: LIVER: ADENOMA) “active; positive”; (Species: RAT, Strain/Sex: CD/FEMALE, Route: ORAL, 15, 150 MG/KG IN DIET FOR 104 WK (STUDY DURATION: 104 WK), 15, 150 MG/KG IN DIET FOR 104 WK (STUDY DURATION: 104 WK)) “inactive; negative”; (Species: RAT, Strain/Sex: CD/MALE, Route: ORAL, 15, 150 MG/KG IN DIET FOR 104 WK (STUDY DURATION: 104 WK), 15, 150 MG/KG IN DIET FOR 104 WK (STUDY DURATION: 104 WK)) “inactive; negative”.

For `Cc1cnc2ccc3c(nc(NO)n3C)c2n1`, the carcinogen call (Species: RAT, Strain/Sex: ACI/SEG/MALE, Route: INTRAPERITONEAL, 50 UMOL/KG BW 2X/WK FOR 10 WK BEGINNING AT 3 D OF AGE (STUDY DURATION: 68 WK), Tumor Site: Type of Lesion: SOFT TISSUE: TUMOR) is “active; positive”.

Regarding `Oc1ccc2c(c1)OCO2`, the carcinogen call reads like this: (Species: MOUSE, Strain/Sex: B6C3F1/FEMALE, Route: ORAL, 2% IN DIET FOR 96 WK (STUDY DURATION: 96 WK), Tumor Site: Type of Lesion: FORESTOMACH: SQUAMOUS CELL CARCINOMA) “active; positive”; (Species: MOUSE, Strain/Sex: B6C3F1/FEMALE, Route: ORAL, 2% IN POWDERED BASAL DIET FOR 96 WK (STUDY DURATION: 96 WK), Tumor Site: Type of Lesion: FORESTOMACH: SQUAMOUS CELL CARCINOMA) “active; positive”; (Species: MOUSE, Strain/Sex: B6C3F1/MALE, Route: ORAL, 2% IN DIET FOR 96 WK (STUDY DURATION: 96 WK), Tumor Site: Type of Lesion: FORESTOMACH: SQUAMOUS CELL CARCINOMA) “active; positive”; (Species: MOUSE, Strain/Sex: B6C3F1/MALE, Route: ORAL, 2% IN POWDERED BASAL DIET FOR 96 WK (STUDY DURATION: 96 WK), Tumor Site: Type of Lesion: FORESTOMACH: SQUAMOUS CELL CARCINOMA) “active; positive”; (Species: RAT, Strain/Sex: F344/FEMALE, Route: ORAL, 2% IN DIET FOR 104 WK (STUDY DURATION: 104 WK)) “inactive; negative”; (Species: RAT, Strain/Sex: F344/FEMALE, Route: ORAL, 2% IN DIET FOR 104 WK (STUDY DURATION: 104 WK), Tumor Site: Type of Lesion: FORESTOMACH: PAPILLOMA) “active; positive”. Moreover, the carcinogen call (Species: RAT, Strain/Sex: F344/FEMALE, Route: ORAL, 2% IN POWDERED BASAL DIET FOR 104 WK (STUDY DURATION: 104 WK), Tumor Site: Type of Lesion: FORESTOMACH: PAPILLOMA) is “active; positive”; the carcinogen call (Species: RAT, Strain/Sex: F344/MALE, Route: ORAL, 0.4% IN DIET FOR DURATION OF STUDY (STUDY DURATION: 104 WK)) was “inactive; negative”; the carcinogen call (Species: RAT, Strain/Sex: F344/MALE, Route: ORAL, 2% IN DIET FOR 104 WK (STUDY DURATION: 104 WK), Tumor Site: Type of Lesion: FORESTOMACH: PAPILLOMA, SQUAMOUS CELL CARCINOMA) was “active; positive”; the carcinogen call (Species: RAT, Strain/Sex: F344/MALE, Route: ORAL, 2% IN DIET FOR 104 WK (STUDY DURATION: 104 WK), Tumor Site: Type of Lesion: FORESTOMACH: SQUAMOUS CELL CARCINOMA) was “active; positive”; the carcinogen call (Species: RAT, Strain/Sex: F344/MALE, Route: ORAL, 2% IN POWDERED BASAL DIET FOR 104 WK (STUDY DURATION: 104 WK), Tumor Site: Type of Lesion: FORESTOMACH: PAPILLOMA, SQUAMOUS CELL CARCINOMA) is “active; positive”.

Take `CC1(C)[C@@H](O[C@H]2O[C@H](C(=O)O)[C@@H](O)[C@H](O)[C@H]2O[C@@H]2O[C@H](C(=O)O)[C@@H](O)[C@H](O)[C@H]2O)CC[C@]2(C)[C@H]3C(=O)C=C4[C@@H]5C[C@@](C)(C(=O)O)CC[C@]5(C)CC[C@@]4(C)[C@]3(C)CC[C@@H]12`: the carcinogen call reads like this: (Species: MOUSE, Strain/Sex: B6C3F1/FEMALE, Route: ORAL, 0.08, 0.15, 0.3% IN DRINKING WATER FOR 96 WK (STUDY DURATION: 110 WK), 0.08, 0.15, 0.3% IN DRINKING WATER FOR 96 WK (STUDY DURATION: 110 WK)) “inactive; negative”; (Species: MOUSE, Strain/Sex: B6C3F1/MALE, Route: ORAL, 0.04, 0.08, 0.15% IN DRINKING WATER FOR 96 WK (STUDY DURATION: 110 WK), 0.04, 0.08, 0.15% IN DRINKING WATER FOR 96 WK (STUDY DURATION: 110 WK)) “inactive; negative”.
